# Publication PMC7901654, “Bioisosteric Discovery of NPA101.3, a Second-Generation RET/VEGFR2 Inhibitor Optimized for Single-Agent Polypharmacology” (Journal of Medicinal Chemistry, 2020)
# What was measured:
# [1] = system: RET/M918T, RET/A883F, and RET/V804L/M; experiment: RET phosphorylation Western blot in RAT1 cells, other point mutants; format: cell-based; settings: 2 h
# Experimental: Fibroblasts transfected with RET/C634R were treated with increasing doses of NPA101.3, ranging from 0.1 to 10.0 nM. RET autophosphorylation was assessed by Western blotting using two different antibodies that can recognize phosphorylated Y905, located in the RET kinase activation loop, or Y1062, a multidocking site involved in RET downstream signaling.[41]
# Figure 4 NPA101.3-mediated inhibition of phosphorylation and signaling of oncogenic RET mutants and VEGFR2 in intact cells. Serum-starved RAT1 cells exogenously expressing the (A and B) indicated RET point mutants or (C) NIH3T3 cells exogenously expressing the indicated RET rearranged mutants were treated for 2 h with the indicated concentrations of the compound. Total cell lysates (50 μg) were subjected to immunoblotting with anti-phospho-Y1062 (αp1062) and anti-phospho-Y905 (αp905) RET antibodies. The blots were normalized using the anti-RET (αRET) antibody. (D) HEK293 cells were transiently transfected with human VEGFR2; 36 h after transfection, cells were serum starved for 12 h. The indicated doses of the compound or vehicle (NT) were added for 2 h, and then VEGFA (100 ng/mL) stimulation was applied for 15 min. […]
# Protein lysates were prepared according to standard procedures. […] Immune complexes were detected with the enhanced chemiluminescence kit (Amersham Pharmacia Biotech, Little Chalfont, U.K.). […]
# MYO3A = molecular target: T1, MYO3A (Homo sapiens, UniProt Q8NEV4); experiment: KinomeScan panel screen; format: binding; settings: 100 nM, read-out: Percent Control
# T1 construct: purchased DiscoveRx KINOMEscan (TRKA and CSF1R IC50 enzymes from Invitrogen)
# Experimental: (§1) In addition, NPA101.3, at a concentration of 100 nM, was subjected to a kinome scan against a 96-kinase panel representing major kinome clusters (Table S2). The compound featured good selectivity, displaying strong binding activity (>90% bound) for only seven additional kinases [CSF1R (colony stimulating factor 1 receptor), FRK (fyn-related Src family tyrosine kinase), HCK (HCK proto-oncogene, Src family tyrosine kinase), LYN (lyn proto-oncogene, Src family tyrosine kinase), MKNK2 (MAPK-interacting serine/threonine kinase 2), TRKA (neurotrophic receptor tyrosine kinase 1), and TRKC (neurotrophic receptor tyrosine kinase 3)] and weak binding (>10–35% bound) for six other kinases (Table S2 and Figure S2). It is important to note that the measurement of binding affinity, which is based on control ligand displacement (Kd), is more sensitive than the in vitro kinase assay. Among the seven kinases with >90% binding, TRKA and CSF1R were selected for an in vitro kinase assay.
# (§2) Supplementary Table S2: NPA101.3 KinomeScan Panel screen.
# (§3) NPA101.3 was screened at a single concentration of 100 nM. Hits values lower than
# (§4) 10% of control were considered strongly positive.
# (§5) DiscoveRx Gene Entrez Gene Percent Compound
# (§6) Symbol Symbol Control Concentration
# EIF2AK1 = molecular target: T2, EIF2AK1 (Homo sapiens, UniProt Q9BQI3); experiment: KinomeScan panel screen; format: binding; settings: EIF2AK1, 100 nM; read-out: Percent Control
# T2 construct: purchased DiscoveRx KINOMEscan (TRKA and CSF1R IC50 enzymes from Invitrogen)
# Experimental: as §1, §2, §3, §4, §5, §6
# [2] = molecular target: T3, RPS6KA4(Kin.Dom.2-C-terminal) (Homo sapiens, UniProt O75676); experiment: KinomeScan panel screen; format: binding; settings: 100 nM, read-out: Percent Control
# T3 construct: RPS6KA4(Kin.Dom.2-C-terminal); purchased DiscoveRx KINOMEscan (TRKA and CSF1R IC50 enzymes from Invitrogen)
# Experimental: as §1, §2, §3, §4, §5, §6
# CLK1 = molecular target: T4, CLK1 (Homo sapiens, UniProt P49759); experiment: KinomeScan panel screen; format: binding; settings: CLK1, 100 nM; read-out: Percent Control
# T4 construct: purchased DiscoveRx KINOMEscan (TRKA and CSF1R IC50 enzymes from Invitrogen)
# Experimental: as §1, §2, §3, §4, §5, §6
# ITK = molecular target: T5, ITK (Homo sapiens, UniProt Q08881); experiment: KinomeScan panel screen; format: binding; settings: 100 nM, read-out: Percent Control
# T5 construct: purchased DiscoveRx KINOMEscan (TRKA and CSF1R IC50 enzymes from Invitrogen)
# Experimental: as §1, §2, §3, §4, §5, §6
# DYRK1A = molecular target: T6, DYRK1A (Homo sapiens, UniProt Q13627); experiment: KinomeScan panel screen; format: binding; settings: 100 nM, read-out: Percent Control
# T6 construct: purchased DiscoveRx KINOMEscan (TRKA and CSF1R IC50 enzymes from Invitrogen)
# Experimental: as §1, §2, §3, §4, §5, §6
# TRKA = molecular target: T7, TRKA (Homo sapiens, UniProt P04629); experiment: KinomeScan panel screen; format: binding; settings: 100 nM
# T7 construct: purchased Invitrogen
# Experimental: as §1, §2, §3, §4, §5, §6
# HIPK2 = molecular target: T8, HIPK2 (Homo sapiens, UniProt Q9H2X6); experiment: KinomeScan panel screen; format: binding; settings: HIPK2, 100 nM; read-out: Percent Control
# T8 construct: purchased DiscoveRx KINOMEscan (TRKA and CSF1R IC50 enzymes from Invitrogen)
# Experimental: as §1, §2, §3, §4, §5, §6
# ALK = molecular target: T9, ALK (Homo sapiens, UniProt Q9UM73); experiment: KinomeScan panel screen; format: binding; settings: 100 nM, read-out: Percent Control
# T9 construct: purchased DiscoveRx KINOMEscan (TRKA and CSF1R IC50 enzymes from Invitrogen)
# Experimental: as §1, §2, §3, §4, §5, §6
# FRK = molecular target: T10, FRK (Homo sapiens, UniProt P42685); experiment: KinomeScan panel screen; format: binding; settings: 100 nM
# T10 construct: purchased DiscoveRx KINOMEscan (TRKA and CSF1R IC50 enzymes from Invitrogen)
# Experimental: as §1, §2, §3, §4, §5, §6
# AKT1 = molecular target: T11, AKT1 (Homo sapiens, UniProt P31749); experiment: KinomeScan panel screen; format: binding; settings: AKT1, 100 nM; read-out: Percent Control
# T11 construct: purchased DiscoveRx KINOMEscan (TRKA and CSF1R IC50 enzymes from Invitrogen)
# Experimental: as §1, §2, §3, §4, §5, §6
# ASK1 = molecular target: T12, ASK1 (Homo sapiens, UniProt Q99683); experiment: KinomeScan panel screen; format: binding; settings: ASK1, 100 nM; read-out: Percent Control
# T12 construct: purchased DiscoveRx KINOMEscan (TRKA and CSF1R IC50 enzymes from Invitrogen)
# Experimental: as §1, §2, §3, §4, §5, §6
# GAK = molecular target: T13, GAK (Homo sapiens, UniProt O14976); experiment: KinomeScan panel screen; format: binding; settings: 100 nM, read-out: Percent Control
# T13 construct: purchased DiscoveRx KINOMEscan (TRKA and CSF1R IC50 enzymes from Invitrogen)
# Experimental: as §1, §2, §3, §4, §5, §6
# SYK = molecular target: T14, SYK (Homo sapiens, UniProt P43405); experiment: KinomeScan panel screen; format: binding; settings: 100 nM, read-out: Percent Control
# T14 construct: purchased DiscoveRx KINOMEscan (TRKA and CSF1R IC50 enzymes from Invitrogen)
# Experimental: as §1, §2, §3, §4, §5, §6
# T10 sequence (P42685 whole entry): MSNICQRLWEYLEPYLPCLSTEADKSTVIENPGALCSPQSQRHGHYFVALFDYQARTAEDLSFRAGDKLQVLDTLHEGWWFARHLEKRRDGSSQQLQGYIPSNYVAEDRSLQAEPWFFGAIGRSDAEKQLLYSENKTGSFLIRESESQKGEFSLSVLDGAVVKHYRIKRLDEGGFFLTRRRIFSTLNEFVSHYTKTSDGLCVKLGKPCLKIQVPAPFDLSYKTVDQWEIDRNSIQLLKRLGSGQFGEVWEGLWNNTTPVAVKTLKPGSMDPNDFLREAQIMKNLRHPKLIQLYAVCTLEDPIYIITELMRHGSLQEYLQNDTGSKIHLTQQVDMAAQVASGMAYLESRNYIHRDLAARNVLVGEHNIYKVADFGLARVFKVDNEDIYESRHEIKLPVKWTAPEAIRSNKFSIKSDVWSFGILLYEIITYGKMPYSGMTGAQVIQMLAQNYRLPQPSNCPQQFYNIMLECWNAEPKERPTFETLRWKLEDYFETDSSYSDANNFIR
# T7 sequence (P04629 33-796): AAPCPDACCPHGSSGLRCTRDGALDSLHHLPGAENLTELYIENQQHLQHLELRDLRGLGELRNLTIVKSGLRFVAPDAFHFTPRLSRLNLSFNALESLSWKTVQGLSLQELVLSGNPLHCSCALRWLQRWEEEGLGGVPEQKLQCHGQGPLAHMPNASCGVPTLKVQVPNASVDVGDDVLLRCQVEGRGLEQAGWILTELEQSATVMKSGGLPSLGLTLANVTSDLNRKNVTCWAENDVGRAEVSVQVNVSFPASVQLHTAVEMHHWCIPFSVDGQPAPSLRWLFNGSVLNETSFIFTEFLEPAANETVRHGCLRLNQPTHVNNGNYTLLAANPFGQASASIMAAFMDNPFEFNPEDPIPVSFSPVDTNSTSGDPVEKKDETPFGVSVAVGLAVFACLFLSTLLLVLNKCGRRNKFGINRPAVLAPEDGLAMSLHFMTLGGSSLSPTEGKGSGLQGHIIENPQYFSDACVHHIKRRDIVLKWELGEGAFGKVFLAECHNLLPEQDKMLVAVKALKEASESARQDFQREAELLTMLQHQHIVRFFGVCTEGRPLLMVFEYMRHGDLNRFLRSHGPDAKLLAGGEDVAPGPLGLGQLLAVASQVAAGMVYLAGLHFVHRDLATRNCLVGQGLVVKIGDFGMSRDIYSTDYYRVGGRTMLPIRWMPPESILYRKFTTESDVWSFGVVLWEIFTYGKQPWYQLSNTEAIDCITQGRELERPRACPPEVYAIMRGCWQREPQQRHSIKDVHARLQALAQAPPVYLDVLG
# T4 sequence (P49759 whole entry): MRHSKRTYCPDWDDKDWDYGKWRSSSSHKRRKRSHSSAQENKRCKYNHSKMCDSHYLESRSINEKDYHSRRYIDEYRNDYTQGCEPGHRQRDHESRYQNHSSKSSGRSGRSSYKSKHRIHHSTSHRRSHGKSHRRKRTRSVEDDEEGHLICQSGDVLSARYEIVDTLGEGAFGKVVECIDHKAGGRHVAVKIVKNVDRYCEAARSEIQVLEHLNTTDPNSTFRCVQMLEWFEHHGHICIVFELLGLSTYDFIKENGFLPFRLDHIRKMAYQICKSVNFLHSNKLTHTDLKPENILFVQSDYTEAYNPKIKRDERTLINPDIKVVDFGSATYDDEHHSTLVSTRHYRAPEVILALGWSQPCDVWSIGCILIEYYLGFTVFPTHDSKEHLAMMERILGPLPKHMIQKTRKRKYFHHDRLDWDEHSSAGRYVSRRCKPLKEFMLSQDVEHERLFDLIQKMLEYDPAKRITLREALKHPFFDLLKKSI
# T8 sequence (Q9H2X6 whole entry): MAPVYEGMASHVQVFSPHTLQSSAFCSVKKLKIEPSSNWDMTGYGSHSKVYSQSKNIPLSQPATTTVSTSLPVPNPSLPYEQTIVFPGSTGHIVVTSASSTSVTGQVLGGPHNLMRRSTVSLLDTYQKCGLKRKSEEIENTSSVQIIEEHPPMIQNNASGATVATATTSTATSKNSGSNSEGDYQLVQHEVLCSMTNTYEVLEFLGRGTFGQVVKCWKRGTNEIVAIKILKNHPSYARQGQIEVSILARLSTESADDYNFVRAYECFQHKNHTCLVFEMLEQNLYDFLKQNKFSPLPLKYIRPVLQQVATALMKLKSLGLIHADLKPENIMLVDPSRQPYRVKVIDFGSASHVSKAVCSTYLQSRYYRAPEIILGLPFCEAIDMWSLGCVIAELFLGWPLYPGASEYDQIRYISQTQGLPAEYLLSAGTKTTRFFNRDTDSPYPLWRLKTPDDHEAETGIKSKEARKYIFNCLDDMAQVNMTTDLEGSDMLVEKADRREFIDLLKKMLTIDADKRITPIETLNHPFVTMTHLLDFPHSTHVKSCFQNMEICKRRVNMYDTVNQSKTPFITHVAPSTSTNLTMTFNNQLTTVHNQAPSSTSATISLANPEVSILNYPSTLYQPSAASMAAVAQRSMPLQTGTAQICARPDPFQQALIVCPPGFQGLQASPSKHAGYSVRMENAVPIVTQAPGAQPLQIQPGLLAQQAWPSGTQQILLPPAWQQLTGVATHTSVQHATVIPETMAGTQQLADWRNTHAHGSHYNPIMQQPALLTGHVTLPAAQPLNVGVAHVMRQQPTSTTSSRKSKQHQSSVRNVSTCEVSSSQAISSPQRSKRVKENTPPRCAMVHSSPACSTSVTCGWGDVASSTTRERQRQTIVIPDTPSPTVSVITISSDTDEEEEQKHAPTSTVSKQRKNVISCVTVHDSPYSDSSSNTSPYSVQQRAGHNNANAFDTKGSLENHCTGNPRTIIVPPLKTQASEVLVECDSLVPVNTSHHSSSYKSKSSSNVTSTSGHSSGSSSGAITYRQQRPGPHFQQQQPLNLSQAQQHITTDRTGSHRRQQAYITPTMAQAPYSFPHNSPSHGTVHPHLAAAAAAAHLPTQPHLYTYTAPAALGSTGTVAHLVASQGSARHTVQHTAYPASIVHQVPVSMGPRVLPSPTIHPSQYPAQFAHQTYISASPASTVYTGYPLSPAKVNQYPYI
# T2 sequence (Q9BQI3 whole entry): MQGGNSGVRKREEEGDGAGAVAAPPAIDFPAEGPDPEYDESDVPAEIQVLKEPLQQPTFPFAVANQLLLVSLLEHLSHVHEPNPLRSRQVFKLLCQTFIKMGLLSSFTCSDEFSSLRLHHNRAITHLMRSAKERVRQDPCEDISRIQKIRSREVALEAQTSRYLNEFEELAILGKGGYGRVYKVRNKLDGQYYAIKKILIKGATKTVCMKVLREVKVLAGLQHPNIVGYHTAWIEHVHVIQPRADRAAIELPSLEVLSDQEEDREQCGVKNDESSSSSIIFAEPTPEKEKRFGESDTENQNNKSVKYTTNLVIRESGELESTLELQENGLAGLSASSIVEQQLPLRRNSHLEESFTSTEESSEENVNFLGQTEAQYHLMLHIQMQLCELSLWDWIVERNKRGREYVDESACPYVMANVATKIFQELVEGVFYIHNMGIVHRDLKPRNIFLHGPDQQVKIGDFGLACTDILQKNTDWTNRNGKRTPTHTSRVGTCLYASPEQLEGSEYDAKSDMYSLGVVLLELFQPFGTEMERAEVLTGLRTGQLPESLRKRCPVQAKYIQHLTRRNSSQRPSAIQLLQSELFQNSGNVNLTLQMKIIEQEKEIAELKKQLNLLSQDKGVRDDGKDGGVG
# T12 sequence (Q99683 whole entry): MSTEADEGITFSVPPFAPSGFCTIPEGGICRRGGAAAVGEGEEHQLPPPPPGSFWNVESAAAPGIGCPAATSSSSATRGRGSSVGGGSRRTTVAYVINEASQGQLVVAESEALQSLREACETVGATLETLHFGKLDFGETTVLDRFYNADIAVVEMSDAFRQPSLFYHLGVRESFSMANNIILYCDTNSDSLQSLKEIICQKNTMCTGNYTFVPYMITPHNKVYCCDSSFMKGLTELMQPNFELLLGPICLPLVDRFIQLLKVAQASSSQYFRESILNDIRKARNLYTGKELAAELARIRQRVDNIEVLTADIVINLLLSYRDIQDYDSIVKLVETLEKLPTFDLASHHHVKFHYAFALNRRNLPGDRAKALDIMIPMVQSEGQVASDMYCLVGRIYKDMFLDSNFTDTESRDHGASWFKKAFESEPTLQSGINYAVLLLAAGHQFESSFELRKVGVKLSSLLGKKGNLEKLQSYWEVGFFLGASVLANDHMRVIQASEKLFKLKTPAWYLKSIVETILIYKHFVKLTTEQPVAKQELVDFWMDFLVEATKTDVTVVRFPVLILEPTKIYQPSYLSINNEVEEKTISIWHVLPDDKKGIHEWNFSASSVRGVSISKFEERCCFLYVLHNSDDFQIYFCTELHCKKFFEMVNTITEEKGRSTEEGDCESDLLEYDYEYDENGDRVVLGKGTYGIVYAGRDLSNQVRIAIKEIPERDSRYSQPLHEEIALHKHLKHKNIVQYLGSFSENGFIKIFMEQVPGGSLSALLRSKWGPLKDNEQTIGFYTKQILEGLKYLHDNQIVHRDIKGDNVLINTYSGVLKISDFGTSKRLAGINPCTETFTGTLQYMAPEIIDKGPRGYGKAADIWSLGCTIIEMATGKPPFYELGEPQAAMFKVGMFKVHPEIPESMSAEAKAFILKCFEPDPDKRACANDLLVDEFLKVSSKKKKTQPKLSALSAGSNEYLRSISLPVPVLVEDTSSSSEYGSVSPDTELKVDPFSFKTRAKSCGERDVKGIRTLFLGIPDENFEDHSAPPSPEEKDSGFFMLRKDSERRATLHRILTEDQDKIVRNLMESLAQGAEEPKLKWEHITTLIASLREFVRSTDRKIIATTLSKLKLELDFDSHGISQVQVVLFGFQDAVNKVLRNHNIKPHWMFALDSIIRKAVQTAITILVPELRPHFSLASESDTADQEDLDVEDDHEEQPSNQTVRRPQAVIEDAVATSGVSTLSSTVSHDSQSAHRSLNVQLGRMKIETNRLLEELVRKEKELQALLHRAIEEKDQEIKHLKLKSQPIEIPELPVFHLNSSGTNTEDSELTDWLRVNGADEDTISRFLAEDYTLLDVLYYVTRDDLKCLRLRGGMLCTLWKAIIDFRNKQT
smiles,measurement,setting,value
CC(C)(C)c1cc(NC(=O)Cc2ccc(-n3cnc4cc(-c5ccc(S(C)(=O)=O)cc5)ccc43)cc2)no1 [NPA101.3],phosphorylation of other MTC-associated RET oncogenic point mutants,[1],inhibited
same,remaining binding at 0.1 µM,MYO3A,77%
same,remaining binding at 0.1 µM,EIF2AK1,99%
same,remaining binding at 0.1 µM,[2],100%
same,remaining binding at 0.1 µM,CLK1,82%
same,remaining binding at 0.1 µM,ITK,72%
same,remaining binding at 0.1 µM,DYRK1A,95%
same,binding (% bound),TRKA,> 90 % bound
same,remaining binding at 0.1 µM,"TRKA; TRKA, read-out: Percent Control",1.3%
same,remaining binding at 0.1 µM,HIPK2,98%
same,remaining binding at 0.1 µM,ALK,93%
same,binding (% bound),FRK,> 90 % bound
same,remaining binding at 0.1 µM,"FRK; FRK, read-out: Percent Control",1.1%
same,remaining binding at 0.1 µM,AKT1,100%
same,remaining binding at 0.1 µM,ASK1,95%
same,remaining binding at 0.1 µM,GAK,42%
same,remaining binding at 0.1 µM,SYK,100%
